Assay results as given in patent US20250270199A1, “THIAZOLE DERIVATIVES AND METHODS OF USING THE SAME” (Arkansas State University - Jonesboro, priority 2022, published 2025).
In brackets after ≈: the same amount, converted by molar mass. Like-named read-outs stand apart in the source and are kept apart here.

Tests used:
[1] = test system: S. aureus LAC MRSA (Sa LAC); assay: MIC, broth microdilution, Sa LAC; format: cell-based; settings: Staphylococcus aureus, read-out: Minimum inhibitory concentration (MIC) Sa LAC
Procedure: (§1) The broth microdilution method was utilized to determine MIC values of novel thiazole derivatives against different clinically important Gram-positive bacteria according to the guidelines outlined by the Clinical and Laboratory Standards Institute (CLSI) as reported in our recent papers.^1-5 The starting concentration of compounds for MIC determination was 64 μg/mL serially diluted down the wells and the MIC values were recorded in duplicates in three independent experiments on different days.

[2] = test system: S. aureus ATCC 25923 (Sa 23); assay: MIC, broth microdilution, Sa 23; format: cell-based; settings: for MIC: Staphylococcus aureus
Procedure: as §1

[3] = test system: S. aureus ATCC 33591 (Sa 91); assay: MIC, broth microdilution, Sa 91; format: cell-based; settings: for MIC: Staphylococcus aureus
Procedure: as §1

[4] = test system: Sa UAMS-1 MRSA ATCC 49230 (Sa UAMS); assay: MIC, broth microdilution, Sa UAMS; format: cell-based, S. aureus; settings: Staphylococcus aureus
Procedure: as §1

[5] = test system: S. aureus ATCC 700699 (Sa 99); assay: MIC, broth microdilution, Sa 99; format: cell-based; settings: for MIC: Staphylococcus aureus
Procedure: as §1

[6] = test system: E. faecalis ATCC 29212 (Efs 12); assay: MIC, broth microdilution, Efs 12; format: cell-based; settings: for MIC: Enterococcus faecalis
Procedure: as §1

[7] = test system: S. aureus ATCC BAA-2312 (Sa 12); assay: MIC, broth microdilution, Sa 12; format: cell-based; settings: Staphylococcus aureus
Procedure: as §1

[8] = test system: S. aureus ATCC 33592 (Sa 92); assay: MIC, broth microdilution, Sa 92; format: cell-based; settings: Staphylococcus aureus
Procedure: as §1

[9] = test system: S. aureus subsp. aureus Rosenbach ATCC 25904 (SA Newman); assay: MIC, broth microdilution, SA Newman; format: cell-based; settings: for MIC: Staphylococcus aureus, read-out: Minimum inhibitory concentration (MIC) Sa Newman
Procedure: as §1

[10] = test system: E. faecalis ATCC 51299 (Efs 99); assay: MIC, broth microdilution, Efs 99; format: cell-based; settings: Enterococcus faecalis, ATCC51299; Table 1, HT series; read-out: Minimum inhibitory concentration (MIC) Efs 99
Procedure: as §1

[11] = test system: S. epidermidis ATCC 700296 (Se); assay: MIC, broth microdilution, Se; format: cell-based; settings: Staphylococcus epidermidis
Procedure: as §1

[12] = test system: E. faecium ATCC 700221 (Efm 21); assay: MIC, broth microdilution, Efm 21; format: cell-based; settings: Enterococcus faecium, ATCC700221, Table 1, HT series; read-out: Minimum inhibitory concentration (MIC) Efm 21
Procedure: as §1

[13] = test system: B. subtilis ATCC 6633 (Bs); assay: MIC, broth microdilution, Bs; format: cell-based; settings: Bacillus subtilis, ATCC6633; Table 1, HT series; read-out: Minimum inhibitory concentration (MIC) Bs
Procedure: as §1

[14] = test system: S. aureus subsp. aureus Rosenbach BAA-1717 (Sa USA 300); assay: MIC, broth microdilution, Sa USA 300; format: cell-based; settings: Staphylococcus aureus
Procedure: as §1

[15] = ATCC25923, Table 1, HT series, replicates from different days separated by comma, read-out: Minimum inhibitory concentration (MIC) Sa 23
[16] = Table 1, HT series, replicates from different days separated by comma
[17] = ATCC33591, Table 1, HT series, read-out: Minimum inhibitory concentration (MIC) Sa 91
[18] = Table 1, HT series, read-out: Minimum inhibitory concentration (MIC) Sa UAMS
[19] = ATCC700699, Table 1, HT series, replicates from different days separated by comma, read-out: Minimum inhibitory concentration (MIC) Sa 99
[20] = ATCC29212, Table 1, HT series, replicates from different days separated by comma, read-out: Minimum inhibitory concentration (MIC) Efs 12
[21] = ATCCBAA2312, Table 1, HT series, read-out: Minimum inhibitory concentration (MIC) Sa 12
[22] = ATCC33592, Table 1, HT series, read-out: Minimum inhibitory concentration (MIC) Sa 92
[23] = ATCC700296, Table 1, HT series, read-out: Minimum inhibitory concentration (MIC) Se
[24] = Table 1, HT series, read-out: Minimum inhibitory concentration (MIC) SA USA 300

Row | SMILES | MIC [2, 15] [µg/mL] | MIC [3, 17] [µg/mL] | MIC [4, 18] [µg/mL] | MIC [5, 19] [µg/mL] | MIC [6, 20] [µg/mL] | MIC [7, 21] [µg/mL] | MIC [8, 22] [µg/mL] | MIC ([9]; Table 1, HT series) [µg/mL] | MIC [10] [µg/mL] | MIC [11, 23] [µg/mL] | MIC [12] [µg/mL] | MIC [13] [µg/mL] | MIC [14, 24] [µg/mL] | further results
1 | Oc1ccc(-c2nc(-c3ccc4ccccc4c3)cs2)cc1O [Compound 14, 4-(4-(naphthalen-2-yl)thiazol-2-yl)benzene-1,2-diol] | 2 (≈ 6.26 µM) | 8 (≈ 25 µM) | 8 (≈ 25 µM) | 2 (≈ 6.26 µM) | 16 (≈ 50.1 µM) | 8 (≈ 25 µM) | 8 (≈ 25 µM) | 8 (≈ 25 µM) |  |  |  |  |  | MIC ([1]; Table 1, HT series): 4 µg/mL (≈ 12.5 µM); Minimum inhibitory concentration (MIC) Sa 23 [2, 16]: 2, 2, 2 μg/mL; Minimum inhibitory concentration (MIC) Sa 99 [5, 16]: 2, 2, 2 μg/mL; Minimum inhibitory concentration (MIC) Efs 12 [6, 16]: 16, 16, 16 μg/mL
2 | Oc1ccc(-c2nc(-c3ccc(F)c(Cl)c3)cs2)cc1O [Compound 21, 4-(4-(3-chloro-4-fluorophenyl)thiazol-2-yl)benzene-1,2-diol] | 8 (≈ 24.9 µM) | 4 (≈ 12.4 µM) | 4 (≈ 12.4 µM) | 8 (≈ 24.9 µM) | 16 (≈ 49.7 µM) | 8 (≈ 24.9 µM) | 8 (≈ 24.9 µM) | 4 (≈ 12.4 µM) | 16 (≈ 49.7 µM) | 8 (≈ 24.9 µM) | 16 (≈ 49.7 µM) | 16 (≈ 49.7 µM) | 4 (≈ 12.4 µM) | 
3 | Oc1ccc(-c2nc(-c3ccc(Cl)c(Cl)c3)cs2)cc1O [Compound 31, 4-(4-(3,4-dichlorophenyl)thiazol-2-yl)benzene-1,2-diol] | 4 (≈ 11.8 µM) | 4 (≈ 11.8 µM) | 4 (≈ 11.8 µM) | 4 (≈ 11.8 µM) | 16 (≈ 47.3 µM) | 4 (≈ 11.8 µM) | 4 (≈ 11.8 µM) | 4 (≈ 11.8 µM) | 16 (≈ 47.3 µM) | 4 (≈ 11.8 µM) | 16 (≈ 47.3 µM) | 16 (≈ 47.3 µM) | 4 (≈ 11.8 µM) | 
4 | Oc1ccc(-c2nc(-c3ccc(Cl)cc3Cl)cs2)cc1 [Compound 34, 4-(4-(2,4-dichlorophenyl)thiazol-2-yl)phenol] | 4 (≈ 12.4 µM) | 4 (≈ 12.4 µM) | 4 (≈ 12.4 µM) | 4 (≈ 12.4 µM) | 8 (≈ 24.8 µM) | 4 (≈ 12.4 µM) | 4 (≈ 12.4 µM) | 4 (≈ 12.4 µM) | 8 (≈ 24.8 µM) | 4 (≈ 12.4 µM) | 8 (≈ 24.8 µM) | 4 (≈ 12.4 µM) | 4 (≈ 12.4 µM) | 
5 | Oc1ccc(-c2nc(-c3cc(C(F)(F)F)cc(C(F)(F)F)c3)cs2)cc1 [Compound 36, 4-(4-(3,5-bis(trifluoromethyl)phenyl)thiazol-2-yl)phenol] | 2 (≈ 5.14 µM) | 2 (≈ 5.14 µM) | 2 (≈ 5.14 µM) | 2 (≈ 5.14 µM) | 2 (≈ 5.14 µM) | 2 (≈ 5.14 µM) | 2 (≈ 5.14 µM) | 2 (≈ 5.14 µM) | 2 (≈ 5.14 µM) | 2 (≈ 5.14 µM) | 2 (≈ 5.14 µM) | 2 (≈ 5.14 µM) | 2 (≈ 5.14 µM) | 
6 | Oc1ccc(-c2nc(-c3cccc(Cl)c3)cs2)cc1 [Compound 38, 4-(4-(3-chlorophenyl)thiazol-2-yl)phenol] | 4 (≈ 13.9 µM) | 4 (≈ 13.9 µM) | 4 (≈ 13.9 µM) | 4 (≈ 13.9 µM) | 8 (≈ 27.8 µM) | 4 (≈ 13.9 µM) | 4 (≈ 13.9 µM) | 4 (≈ 13.9 µM) | 8 (≈ 27.8 µM) | 4 (≈ 13.9 µM) | 8 (≈ 27.8 µM) | 4 (≈ 13.9 µM) | 4 (≈ 13.9 µM) | 
7 | Oc1ccc(-c2nc(-c3ccc(C(F)(F)F)cc3)cs2)cc1 [Compound 39, 4-(4-(4(trifluoromethyl)phenyl)thiazol-2-yl)phenol] | 2 (≈ 6.22 µM) | 4 (≈ 12.4 µM) | 4 (≈ 12.4 µM) | 4 (≈ 12.4 µM) | > 32 | 2 (≈ 6.22 µM) | 4 (≈ 12.4 µM) | 4 (≈ 12.4 µM) | > 32 | 2 (≈ 6.22 µM) | 32 (≈ 99.6 µM) | 4 (≈ 12.4 µM) | 4 (≈ 12.4 µM) | 
8 | CN[C@H](CC(C)C)C(=O)N[C@H]1C(=O)N[C@@H](CC(N)=O)C(=O)N[C@H]2C(=O)N[C@H]3C(=O)N[C@H](C(=O)N[C@H](C(=O)O)c4cc(O)cc(O)c4-c4cc3ccc4O)[C@H](O)c3ccc(c(Cl)c3)Oc3cc2cc(c3O[C@@H]2O[C@H](CO)[C@@H](O)[C@H](O)[C@H]2O[C@H]2C[C@](C)(N)[C@H](O)[C@H](C)O2)Oc2ccc(cc2Cl)[C@H]1O [Vanc., Vancomycin, reference compound] |  |  |  |  |  |  |  |  |  |  |  |  |  | MIC [1]: 1 µg/mL (≈ 0.69 µM); MIC ([2]; ATCC25923, read-out: Minimum inhibitory concentration (MIC) Sa 23): 1 µg/mL (≈ 0.69 µM); Minimum inhibitory concentration (MIC) Sa 23 ([2]; Table 2, HTM series): 1 µg/mL (≈ 0.69 µM); MIC ([3]; ATCC33591, read-out: Minimum inhibitory concentration (MIC) Sa 91): 2 µg/mL (≈ 1.38 µM); Minimum inhibitory concentration (MIC) Sa 91 ([3]; Table 2, HTM series): 2 µg/mL (≈ 1.38 µM); MIC ([4]; read-out: Minimum inhibitory concentration (MIC) Sa UAMS): 2 µg/mL (≈ 1.38 µM); MIC ([4]; read-out: Minimum inhibitory concentration (MIC) Sa UAMS-1): 1 µg/mL (≈ 0.69 µM); MIC ([5]; ATCC700699, read-out: Minimum inhibitory concentration (MIC) Sa 99, Table 1, HT series, replicates from different days separated by comma): 2 µg/mL (≈ 1.38 µM); MIC ([5]; ATCC700699, read-out: Minimum inhibitory concentration (MIC) Sa 99, Table 2, HTM series): 4 µg/mL (≈ 2.76 µM); MIC ([11]; ATCC700296, read-out: Minimum inhibitory concentration (MIC) Se): 2 µg/mL (≈ 1.38 µM); MIC ([6]; ATCC29212, read-out: Minimum inhibitory concentration (MIC) Efs 12, Table 1, HT series, replicates from different days separated by comma): 2 µg/mL (≈ 1.38 µM); MIC ([6]; ATCC29212, read-out: Minimum inhibitory concentration (MIC) Efs 12, Table 2, HTM series): 4 µg/mL (≈ 2.76 µM); MIC ([7]; ATCCBAA2312, read-out: Minimum inhibitory concentration (MIC) Sa 12, Table 1, HT series): 1 µg/mL (≈ 0.69 µM); MIC ([7]; ATCCBAA2312, read-out: Minimum inhibitory concentration (MIC) Sa 12, Table 2, HTM series): 0.5 µg/mL (≈ 0.345 µM); MIC ([8]; ATCC33592, read-out: Minimum inhibitory concentration (MIC) Sa 92, Table 1, HT series): 1 µg/mL (≈ 0.69 µM); MIC ([8]; ATCC33592, read-out: Minimum inhibitory concentration (MIC) Sa 92, Table 2, HTM series): 2 µg/mL (≈ 1.38 µM); MIC [9]: 2 µg/mL (≈ 1.38 µM); Minimum inhibitory concentration (MIC) Sa Newman ([9]; Table 2, HTM series): 2 µg/mL (≈ 1.38 µM); MIC ([14]; read-out: Minimum inhibitory concentration (MIC) Sa USA 300): 1 µg/mL (≈ 0.69 µM)
